Values of other authors, collected in publication PMC11730002 (Turkish Journal of Pharmaceutical Sciences, 2025).

Experiments:
pancreatic lipase = target: T1, pancreatic lipase (Sus scrofa, UniProt P00591); conditions: read-out: Pancreatic lipase inhibition IC50; in vitro study
T1 sequence (P00591 1-450): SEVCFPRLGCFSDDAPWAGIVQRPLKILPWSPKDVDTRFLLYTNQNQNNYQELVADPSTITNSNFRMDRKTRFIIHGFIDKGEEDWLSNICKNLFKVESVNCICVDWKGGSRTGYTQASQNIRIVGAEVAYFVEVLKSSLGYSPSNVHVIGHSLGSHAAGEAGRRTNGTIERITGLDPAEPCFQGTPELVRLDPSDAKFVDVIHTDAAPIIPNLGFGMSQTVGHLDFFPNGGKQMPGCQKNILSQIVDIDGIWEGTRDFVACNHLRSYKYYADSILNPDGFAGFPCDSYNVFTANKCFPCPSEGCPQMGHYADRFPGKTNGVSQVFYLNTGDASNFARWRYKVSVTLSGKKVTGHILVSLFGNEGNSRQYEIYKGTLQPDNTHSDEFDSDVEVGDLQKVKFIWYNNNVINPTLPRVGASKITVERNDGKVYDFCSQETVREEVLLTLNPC

lipase = conditions: read-out: Lipase inhibitory activity IC50

O=C(/C=C/c1ccc(O)c(O)c1)O[C@H](Cc1ccc(O)c(O)c1)C(=O)O [Rosmarinic acid]
IC50 (pancreatic lipase): 347 µM
IC50 (lipase): 62.8 ± 2.7 µM
